Reference: PubChem BioAssay (NCI)
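In this assay, cells in 96-well plates receive the compound at five concentrations for 48 hours. Endpoints are linearly interpolated between the surrounding concentrations. TGI: total growth inhibition.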

Assays:
Assay in all cases: NCI-60 cell line screen, 48 h
SR leukemia = test system: SR leukemia
HOP-62 NSCLC = test system: HOP-62 NSCLC
SN12C renal = test system: SN12C renal
786-0 renal = test system: 786-0 renal
NCI-H226 lung = test system: NCI-H226 lung
OVCAR-8 ovarian = test system: OVCAR-8 ovarian
LOX IMVI melanoma = test system: LOX IMVI melanoma
BT-549 breast = test system: BT-549 breast
ACHN renal = test system: ACHN renal
UO-31 renal = test system: UO-31 renal
A498 renal = test system: A498 renal
DU-145 prostate = test system: DU-145 prostate
CAKI-1 renal = test system: CAKI-1 renal
M14 melanoma = test system: M14 melanoma
RPMI-8226 leukemia = test system: RPMI-8226 leukemia
MOLT-4 leukemia = test system: MOLT-4 leukemia
KM12 colon = test system: KM12 colon
NCI/ADR-RES ovarian = test system: NCI/ADR-RES ovarian
SF-539 CNS = test system: SF-539 CNS
OVCAR-4 ovarian = test system: OVCAR-4 ovarian
HCT-15 colon = test system: HCT-15 colon
MCF7 breast = test system: MCF7 breast
NCI-H522 lung = test system: NCI-H522 lung
HT29 colon = test system: HT29 colon
OVCAR-5 ovarian = test system: OVCAR-5 ovarian
MDA-N = test system: MDA-N
UACC-257 melanoma = test system: UACC-257 melanoma
SK-MEL-2 melanoma = test system: SK-MEL-2 melanoma
COLO 205 colon = test system: COLO 205 colon
RXF 393 renal = test system: RXF 393 renal
HOP-92 NSCLC = test system: HOP-92 NSCLC
HL-60(TB) leukemia = test system: HL-60(TB) leukemia
EKVX NSCLC = test system: EKVX NSCLC
MDA-MB-231 breast = test system: MDA-MB-231 breast
SK-MEL-5 melanoma = test system: SK-MEL-5 melanoma
CCRF-CEM leukemia = test system: CCRF-CEM leukemia
SF-295 CNS = test system: SF-295 CNS
A549 NSCLC = test system: A549 NSCLC
U251 CNS = test system: U251 CNS
SNB-19 CNS = test system: SNB-19 CNS
TK-10 renal = test system: TK-10 renal
SNB-75 CNS = test system: SNB-75 CNS
K-562 leukemia = test system: K-562 leukemia
SW-620 colon = test system: SW-620 colon
HCT-116 colon = test system: HCT-116 colon
MALME-3M melanoma = test system: MALME-3M melanoma
PC-3 prostate = test system: PC-3 prostate
T-47D breast = test system: T-47D breast
MDA-MB-435 = test system: MDA-MB-435
SK-OV-3 ovarian = test system: SK-OV-3 ovarian
OVCAR-3 ovarian = test system: OVCAR-3 ovarian
IGROV1 ovarian = test system: IGROV1 ovarian
SK-MEL-28 melanoma = test system: SK-MEL-28 melanoma
SF-268 CNS = test system: SF-268 CNS
NCI-H23 lung = test system: NCI-H23 lung
HS 578T breast = test system: HS 578T breast
NCI-H460 lung = test system: NCI-H460 lung
UACC-62 melanoma = test system: UACC-62 melanoma
HCC-2998 colon = test system: HCC-2998 colon

## Cc1csc(NCc2ccc(Cl)cc2)n1
SR leukemia
  TGI: > 100 µM
HOP-62 NSCLC
  TGI: > 100 µM
SN12C renal
  TGI: > 100 µM
786-0 renal
  TGI: > 100 µM
NCI-H226 lung
  TGI: > 100 µM
OVCAR-8 ovarian
  TGI: > 100 µM
LOX IMVI melanoma
  TGI: > 100 µM
BT-549 breast
  TGI: > 100 µM
ACHN renal
  TGI: > 100 µM
UO-31 renal
  TGI: > 100 µM
A498 renal
  TGI: > 100 µM
DU-145 prostate
  TGI: > 100 µM
CAKI-1 renal
  TGI: > 100 µM
M14 melanoma
  TGI: > 100 µM
RPMI-8226 leukemia
  TGI: > 100 µM
MOLT-4 leukemia
  TGI: > 100 µM
KM12 colon
  TGI: > 100 µM
NCI/ADR-RES ovarian
  TGI: > 100 µM
SF-539 CNS
  TGI: > 100 µM
OVCAR-4 ovarian
  TGI: > 100 µM
HCT-15 colon
  TGI: > 100 µM
MCF7 breast
  TGI: > 100 µM
NCI-H522 lung
  TGI: > 100 µM
HT29 colon
  TGI: > 100 µM
OVCAR-5 ovarian
  TGI: > 100 µM
MDA-N
  TGI: > 100 µM
UACC-257 melanoma
  TGI: > 100 µM
SK-MEL-2 melanoma
  TGI: > 100 µM
COLO 205 colon
  TGI: 63.1 µM
RXF 393 renal
  TGI: 79 µM
HOP-92 NSCLC
  TGI: 89.9 µM
HL-60(TB) leukemia
  TGI: > 100 µM
EKVX NSCLC
  TGI: > 100 µM
MDA-MB-231 breast
  TGI: > 100 µM
SK-MEL-5 melanoma
  TGI: 59.4 µM
CCRF-CEM leukemia
  TGI: > 100 µM
SF-295 CNS
  TGI: > 100 µM
A549 NSCLC
  TGI: > 100 µM
U251 CNS
  TGI: > 100 µM
SNB-19 CNS
  TGI: > 100 µM
TK-10 renal
  TGI: > 100 µM
SNB-75 CNS
  TGI: > 100 µM
K-562 leukemia
  TGI: > 100 µM
SW-620 colon
  TGI: > 100 µM
HCT-116 colon
  TGI: > 100 µM
MALME-3M melanoma
  TGI: > 100 µM
PC-3 prostate
  TGI: > 100 µM
T-47D breast
  TGI: > 100 µM
MDA-MB-435
  TGI: > 100 µM
SK-OV-3 ovarian
  TGI: > 100 µM
OVCAR-3 ovarian
  TGI: > 100 µM
IGROV1 ovarian
  TGI: > 100 µM
SK-MEL-28 melanoma
  TGI: > 100 µM
SF-268 CNS
  TGI: > 100 µM
NCI-H23 lung
  TGI: > 100 µM
HS 578T breast
  TGI: > 100 µM

## N#CCCN(C(=O)Nc1ccc(NC(=O)N(CCC#N)c2ccccc2)cc1)c1ccccc1
SR leukemia
  TGI: > 100 µM
HOP-62 NSCLC
  TGI: > 100 µM
SN12C renal
  TGI: > 100 µM
786-0 renal
  TGI: > 100 µM
NCI-H226 lung
  TGI: > 100 µM
OVCAR-8 ovarian
  TGI: > 100 µM
LOX IMVI melanoma
  TGI: > 100 µM
BT-549 breast
  TGI: > 100 µM
ACHN renal
  TGI: > 100 µM
UO-31 renal
  TGI: > 100 µM
A498 renal
  TGI: > 100 µM
DU-145 prostate
  TGI: > 100 µM
CAKI-1 renal
  TGI: > 100 µM
M14 melanoma
  TGI: > 100 µM
RPMI-8226 leukemia
  TGI: > 100 µM
MOLT-4 leukemia
  TGI: > 100 µM
NCI-H460 lung
  TGI: > 100 µM
KM12 colon
  TGI: > 100 µM
NCI/ADR-RES ovarian
  TGI: > 100 µM
OVCAR-4 ovarian
  TGI: > 100 µM
HCT-15 colon
  TGI: > 100 µM
MCF7 breast
  TGI: > 100 µM
NCI-H522 lung
  TGI: > 100 µM
HT29 colon
  TGI: > 100 µM
OVCAR-5 ovarian
  TGI: > 100 µM
MDA-N
  TGI: > 100 µM
SK-MEL-2 melanoma
  TGI: > 100 µM
COLO 205 colon
  TGI: > 100 µM
RXF 393 renal
  TGI: > 100 µM
HL-60(TB) leukemia
  TGI: > 100 µM
EKVX NSCLC
  TGI: > 100 µM
MDA-MB-231 breast
  TGI: > 100 µM
SK-MEL-5 melanoma
  TGI: > 100 µM
SF-295 CNS
  TGI: > 100 µM
A549 NSCLC
  TGI: > 100 µM
U251 CNS
  TGI: > 100 µM
SNB-19 CNS
  TGI: > 100 µM
SNB-75 CNS
  TGI: > 100 µM
K-562 leukemia
  TGI: > 100 µM
SW-620 colon
  TGI: > 100 µM
HCT-116 colon
  TGI: > 100 µM
MALME-3M melanoma
  TGI: > 100 µM
PC-3 prostate
  TGI: > 100 µM
T-47D breast
  TGI: > 100 µM
MDA-MB-435
  TGI: > 100 µM
SK-OV-3 ovarian
  TGI: > 100 µM
OVCAR-3 ovarian
  TGI: > 100 µM
IGROV1 ovarian
  TGI: > 100 µM
SK-MEL-28 melanoma
  TGI: > 100 µM
UACC-62 melanoma
  TGI: > 100 µM
HCC-2998 colon
  TGI: > 100 µM
SF-268 CNS
  TGI: > 100 µM
NCI-H23 lung
  TGI: > 100 µM
HS 578T breast
  TGI: > 100 µM
